Laboratory results as given in the supplement of paper PMC11061612.

Assays:
[1] = test system: COR-L279 (Small Cell Lung Carcinoma); experiment: Bliss excess, mean over the matrix (fraction); higher = more synergy
Outline: (§1)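 Cell lines grown in DMEM/F12 or RPMI with 10% FBS were plated in 1536-well plates and held 24 hours at 37°C, 5% CO2 before 72 hours of exposure to two-drug dose matrices, with DMSO typically at 0.2%. CellTiter-Glo 2.0 luminescence gave viability, which was converted to inhibition. Vehicle wells were set to 0 and blank wells to 1. Combination Emax is the second-highest inhibition in the matrix, and Bliss excess is the observed combination effect minus the expected EA + EB − EA·EB, where EA and EB are the single-agent effects.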

[2] = test system: CW-2 (Colorectal Carcinoma); experiment: as above
Outline: as §1

[3] = test system: DMS-114 (Small Cell Lung Carcinoma); experiment: as above
Outline: as §1

[4] = test system: KU812 (Chronic Myelogenous Leukemia); experiment: as above
Outline: as §1

[5] = test system: KYSE-270 (Esophageal Squamous Cell Carcinoma); experiment: as above
Outline: as §1

M059J (Glioblastoma) [6] = experiment: as above
Outline: as §1

[7] = test system: MN-60 (B-Lymphoblastic Leukemia); experiment: as above
Outline: as §1

[8] = test system: MOG-G-CCM (Low Grade Glioma); experiment: as above
Outline: as §1

[9] = test system: NCCIT (Other Solid Carcinomas); experiment: as above
Outline: as §1

NCI-H2731 (Mesothelioma) [10] = experiment: as above
Outline: as §1

[11] = test system: NCI-H3122 (Lung Adenocarcinoma); experiment: as above
Outline: as §1

[12] = test system: NCI-H520 (Squamous Cell Lung Carcinoma); experiment: as above
Outline: as §1

[13] = test system: NCI-H526 (Small Cell Lung Carcinoma); experiment: as above
Outline: as §1

[14] = test system: NCI-H929 (Plasma Cell Myeloma); experiment: as above
Outline: as §1

[15] = test system: OCI-AML3 (Acute Myeloid Leukemia); experiment: as above
Outline: as §1

SJSA-1 (Osteosarcoma) [16] = experiment: as above
Outline: as §1

[17] = test system: SK-GT-4 (Esophageal Adenocarcinoma); experiment: as above
Outline: as §1

[18] = test system: ST486 (Burkitt's Lymphoma); experiment: as above
Outline: as §1

[19] = test system: T-T (Esophageal Squamous Cell Carcinoma); experiment: as above
Outline: as §1

[20] = test system: VMRC-RCZ (Kidney Carcinoma); experiment: as above
Outline: as §1

[21] = test system: COR-L279 (Small Cell Lung Carcinoma); experiment: combination Emax (second highest fraction inhibited in the dose matrix, 72 h); higher = more inhibition; extreme values may be limits of the assay
Outline: as §1

[22] = test system: CW-2 (Colorectal Carcinoma); experiment: as above
Outline: as §1

[23] = test system: DMS-114 (Small Cell Lung Carcinoma); experiment: as above
Outline: as §1

[24] = test system: KU812 (Chronic Myelogenous Leukemia); experiment: as above
Outline: as §1

[25] = test system: KYSE-270 (Esophageal Squamous Cell Carcinoma); experiment: as above
Outline: as §1

M059J (Glioblastoma) [26] = experiment: as above
Outline: as §1

[27] = test system: MN-60 (B-Lymphoblastic Leukemia); experiment: as above
Outline: as §1

[28] = test system: MOG-G-CCM (Low Grade Glioma); experiment: as above
Outline: as §1

[29] = test system: NCCIT (Other Solid Carcinomas); experiment: as above
Outline: as §1

NCI-H2731 (Mesothelioma) [30] = experiment: as above
Outline: as §1

[31] = test system: NCI-H3122 (Lung Adenocarcinoma); experiment: as above
Outline: as §1

[32] = test system: NCI-H520 (Squamous Cell Lung Carcinoma); experiment: as above
Outline: as §1

[33] = test system: NCI-H526 (Small Cell Lung Carcinoma); experiment: as above
Outline: as §1

[34] = test system: NCI-H929 (Plasma Cell Myeloma); experiment: as above
Outline: as §1

[35] = test system: OCI-AML3 (Acute Myeloid Leukemia); experiment: as above
Outline: as §1

SJSA-1 (Osteosarcoma) [36] = experiment: as above
Outline: as §1

[37] = test system: SK-GT-4 (Esophageal Adenocarcinoma); experiment: as above
Outline: as §1

[38] = test system: ST486 (Burkitt's Lymphoma); experiment: as above
Outline: as §1

[39] = test system: T-T (Esophageal Squamous Cell Carcinoma); experiment: as above
Outline: as §1

[40] = test system: VMRC-RCZ (Kidney Carcinoma); experiment: as above
Outline: as §1

[41] = test system: KP-3 (Pancreatic Carcinoma); experiment: Bliss excess, mean over the matrix (fraction); higher = more synergy
Outline: as §1

[42] = test system: KP-3 (Pancreatic Carcinoma); experiment: combination Emax (second highest fraction inhibited in the dose matrix, 72 h); higher = more inhibition; extreme values may be limits of the assay
Outline: as §1
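For Bliss excess, mean over the matrix in this document: after 72 h of two-drug dosing.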

SMILES: C[C@@H]1COCCN1c1cc(C2([S@](C)(=N)=O)CC2)nc(-c2ccnc3[nH]ccc23)n1 [AZD6738] + Nc1ccn([C@@H]2O[C@H](CO)[C@@H](O)C2(F)F)c(=O)n1 [Gemcitabine] (first compound max 10 µM, 7x7, partner max 0.3 µM)
- Bliss excess [1]: 0.0205
- Bliss excess [2]: 0.0109
- Bliss excess [3]: 0.0549
- Bliss excess [4]: -0.0077
- Bliss excess [5]: 0.0806
- Bliss excess (M059J (Glioblastoma) [6]): 0.0209
- Bliss excess [7]: -0.0375
- Bliss excess [8]: 0.0311
- Bliss excess [9]: 0.107
- Bliss excess (NCI-H2731 (Mesothelioma) [10]): 0.0371
- Bliss excess [11]: 0.0297
- Bliss excess [12]: 0.0434
- Bliss excess [13]: 0.0678
- Bliss excess [14]: 0
- Bliss excess [15]: -0.0143
- Bliss excess (SJSA-1 (Osteosarcoma) [16]): -0.0104
- Bliss excess [17]: 0.023
- Bliss excess [18]: 0.0362
- Bliss excess [19]: 0.221
- Bliss excess [20]: 0.0193
- combination Emax [21]: 0.995
- combination Emax [22]: 0.659
- combination Emax [23]: 0.78
- combination Emax [24]: 0.853
- combination Emax [25]: 1
- combination Emax (M059J (Glioblastoma) [26]): 0.823
- combination Emax [27]: 0.72
- combination Emax [28]: 0.783
- combination Emax [29]: 0.839
- combination Emax (NCI-H2731 (Mesothelioma) [30]): 0.511
- combination Emax [31]: 0.899
- combination Emax [32]: 0.916
- combination Emax [33]: 0.973
- combination Emax [34]: 0.906
- combination Emax [35]: 0.953
- combination Emax (SJSA-1 (Osteosarcoma) [36]): 0.722
- combination Emax [37]: 0.585
- combination Emax [38]: 0.98
- combination Emax [39]: 0.897
- combination Emax [40]: 0.542

SMILES: CS(=O)(=O)CCNCc1ccc(-c2ccc3ncnc(Nc4ccc(OCc5cccc(F)c5)c(Cl)c4)c3c2)o1 [Lapatinib] + Cn1cnc2c(F)c(Nc3ccc(Br)cc3Cl)c(C(=O)NOCCO)cc21 [Selumetinib] (first compound max 10 µM, 7x7, partner max 10 µM)
- Bliss excess [1]: -0.0224
- Bliss excess [2]: 0.003
- Bliss excess [3]: -0.044
- Bliss excess [41]: 0.0488
- Bliss excess [4]: 0.0082
- Bliss excess [5]: -0.0187
- Bliss excess (M059J (Glioblastoma) [6]): -0.0403
- Bliss excess [7]: -0.0751
- Bliss excess [8]: -0.0433
- Bliss excess [9]: -0.0596
- Bliss excess (NCI-H2731 (Mesothelioma) [10]): -0.012
- Bliss excess [11]: 0.0083
- Bliss excess [12]: -0.034
- Bliss excess [13]: 0.0154
- Bliss excess [14]: 0.0271
- Bliss excess [15]: -0.0562
- Bliss excess (SJSA-1 (Osteosarcoma) [16]): -0.0364
- Bliss excess [17]: 0.0369
- Bliss excess [18]: 0.0111
- Bliss excess [19]: 0.0514
- Bliss excess [20]: -0.0149
- combination Emax [21]: 0.811
- combination Emax [22]: 0.576
- combination Emax [23]: 0.437
- combination Emax [42]: 0.367
- combination Emax [24]: 0.963
- combination Emax [25]: 0.542
- combination Emax (M059J (Glioblastoma) [26]): 0.365
- combination Emax [27]: 0.204
- combination Emax [28]: 0.257
- combination Emax [29]: 0.255
- combination Emax (NCI-H2731 (Mesothelioma) [30]): 0.35
- combination Emax [31]: 0.611
- combination Emax [32]: 0.357
- combination Emax [33]: 0.164
- combination Emax [34]: 0.707
- combination Emax [35]: 0.879
- combination Emax (SJSA-1 (Osteosarcoma) [36]): 0.422
- combination Emax [37]: 0.585
- combination Emax [38]: 0.825
- combination Emax [39]: 0.843
- combination Emax [40]: 0.257

SMILES: N#Cc1cnc(Nc2cc(NC[C@H]3CNCCO3)c(C(F)(F)F)cn2)cn1 [SRA737] + Nc1ccn([C@@H]2O[C@H](CO)[C@@H](O)C2(F)F)c(=O)n1 [Gemcitabine] (first compound max 10 µM, 7x7, partner max 0.3 µM)
- Bliss excess [2]: 0.0386
- Bliss excess [3]: 0.087
- Bliss excess [4]: 0.0421
- Bliss excess [5]: 0.0675
- Bliss excess (M059J (Glioblastoma) [6]): 0.0426
- Bliss excess [7]: -0.0116
- Bliss excess [8]: 0.0991
- Bliss excess [9]: 0.0492
- Bliss excess (NCI-H2731 (Mesothelioma) [10]): 0.0907
- Bliss excess [11]: 0.0479
- Bliss excess [12]: 0.0706
- Bliss excess [13]: 0.0912
- Bliss excess [14]: 0.0643
- Bliss excess [15]: -0.0422
- Bliss excess (SJSA-1 (Osteosarcoma) [16]): -0.0857
- Bliss excess [17]: 0.0313
- Bliss excess [18]: -0.006
- Bliss excess [19]: 0.144
- Bliss excess [20]: 0.0299
- combination Emax [21]: 0.986
- combination Emax [22]: 0.623
- combination Emax [23]: 0.715
- combination Emax [24]: 0.813
- combination Emax [25]: 0.991
- combination Emax (M059J (Glioblastoma) [26]): 0.794
- combination Emax [27]: 0.745
- combination Emax [28]: 0.857
- combination Emax [29]: 0.816
- combination Emax (NCI-H2731 (Mesothelioma) [30]): 0.515
- combination Emax [31]: 0.826
- combination Emax [32]: 0.892
- combination Emax [33]: 0.942
- combination Emax [34]: 0.922
- combination Emax [35]: 0.93
- combination Emax (SJSA-1 (Osteosarcoma) [36]): 0.681
- combination Emax [37]: 0.491
- combination Emax [38]: 0.968
- combination Emax [39]: 0.737
- combination Emax [40]: 0.518
